Assays:
[1] = Terminal phase volume of distribution at steady state in psychotic patient (9 patients) at 3.5 +/- 1.2 mg, iv by reversed phase HPLC method; type: ADME, organism-based; settings: human, in vivo, 3.5 mg, read-out: Vbeta
[2] = Volume of distribution at steady state in psychotic patient (9 patients) at 3.5 +/- 1.2 mg, iv by reversed phase HPLC method; type: ADME, organism-based; settings: human, in vivo, 3.5 mg, read-out: Vdss
Plasma = experiment: Plasma concentration in psychotic patient; type: ADME; settings: human
[3] = Terminal phase volume of distribution at steady state in psychotic patient (9 patients) at 3.5 +/- 1.2 mg, iv by reversed phase HPLC method based model-independent approach analysis; type: ADME, organism-based; settings: human, in vivo, 3.5 mg, read-out: Vbeta
[4] = Terminal half life in psychotic patient (9 patients) at 2.9 +/- 1.2 mg, po by reversed phase HPLC method; type: ADME, organism-based; settings: human, in vivo, 2.9 mg, read-out: beta t1/2 (converted)
[5] = Terminal phase volume of distribution at steady state in psychotic patient (9 patients) at 3.5 +/- 1.2 mg, iv by reversed phase HPLC method based model-dependent approach analysis; type: ADME, organism-based; settings: human, in vivo, 3.5 mg, read-out: Vbeta
[6] = Terminal half life in psychotic patient (9 patients) at 3.5 +/- 1.2 mg, iv by reversed phase HPLC method; type: ADME, organism-based; settings: human, in vivo, 3.5 mg, read-out: beta t1/2 (converted)
[7] = Unbound fraction in human serum; type: ADME, cell-free
[8] = Unbound fraction in psychotic patient (9 patients) at 3.5 +/- 1.2 mg, iv by reversed phase HPLC method; type: ADME, organism-based; settings: human, in vivo

Q: With O=C(CCCN1CCC(O)(c2ccc(Cl)cc2)CC1)c1ccc(F)cc1 [HALOPERIDOL] as the molecule, how does the Vd [1] read?
A: 9.5 L/kg

Q: And the Vd [2]?
A: 7.9 L/kg

Q: What about the Cp (Plasma) of the same molecule?
A: 5 ng/mL

Q: What about the Vd [3] of the same molecule?
A: 9.5 L/kg

Q: What about the half-life [4] of the same molecule?
A: 18.1 h

Q: What about the Vd [5] of the same molecule?
A: 9.6 L/kg

Q: And the half-life [6]?
A: 18.8 h

Q: And the fraction unbound [7]?
A: 0.08

Q: And the Fu [8]?
A: 0.6%
